According to PMC7663372, “Brain Distribution of Dual ABCB1/ABCG2 Substrates Is Unaltered in a Beta-Amyloidosis Mouse Model” (International Journal of Molecular Sciences, 2020):
pIC50: −log10 of the molar value. Like-named read-outs stand apart in the source and are kept apart here.

Tests used:
ABCG2 at the mouse BBB [1] = target: T1, ABCG2 at the mouse BBB (Mus musculus, UniProt Q7TMS5); details: for percentage increase in Kp,brain following ABCG2 inhibition: Ko143 5 mg/kg vs vehicle, tariquidar 12 mg/kg, hippocampus, cortex; for change in Kp,brain after partial ABCG2 inhibition: Ko143 5 mg/kg
T1 sequence (Q7TMS5 1-657): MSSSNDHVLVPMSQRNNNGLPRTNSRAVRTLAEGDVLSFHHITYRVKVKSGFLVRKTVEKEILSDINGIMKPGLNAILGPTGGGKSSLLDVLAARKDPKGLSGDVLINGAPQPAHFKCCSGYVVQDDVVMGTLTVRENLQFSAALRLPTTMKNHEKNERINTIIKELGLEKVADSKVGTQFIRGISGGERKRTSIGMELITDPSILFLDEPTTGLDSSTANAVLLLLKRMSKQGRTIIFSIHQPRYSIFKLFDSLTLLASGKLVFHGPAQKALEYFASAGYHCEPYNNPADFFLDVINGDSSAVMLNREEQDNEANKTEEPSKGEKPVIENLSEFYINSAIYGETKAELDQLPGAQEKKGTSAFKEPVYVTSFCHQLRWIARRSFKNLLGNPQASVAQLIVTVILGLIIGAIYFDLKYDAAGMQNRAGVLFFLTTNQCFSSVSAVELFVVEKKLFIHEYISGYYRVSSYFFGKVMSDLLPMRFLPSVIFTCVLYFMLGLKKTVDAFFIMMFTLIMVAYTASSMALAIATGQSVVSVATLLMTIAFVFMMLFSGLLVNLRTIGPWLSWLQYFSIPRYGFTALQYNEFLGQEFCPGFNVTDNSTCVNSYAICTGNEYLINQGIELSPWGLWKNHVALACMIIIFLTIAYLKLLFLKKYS

ABCG2 at the mouse BBB [2] = target: T1, ABCG2 at the mouse BBB; parameters: Two PET imaging approaches for assessing the activity of ABCG2 at the mouse BBB were performed; from tissue; host or cells: blood-brain barrier (brain capillary endothelium) of living female APP/PS1-21 and wild-type C57BL/6J mice; method as in PMID 22828996; details: Abcb1a/b(-/-) mice pretreated with 15 mg/kg Ko143; cited from earlier work
ABCB1 at the BBB = details: cited from earlier work
ABCB1 [3] = details: cited from earlier work
ABCB1 [4] = system: ABCB1; parameters: method as in PMID 26940368; details: read-out: IC50 for in vitro inhibition of its own transport by ABCB1; cited from earlier work
ABCG2 = system: ABCG2; parameters: method as in PMID 26940368; details: read-out: IC50 for in vitro inhibition of its own transport by ABCG2; cited from earlier work
ABCB1 [5] = details: cited from earlier work; remark: listed apart in the source

Structure (SMILES): COc1cc2c(cc1OC)CN(CCc1ccc(NC(=O)c3cc(OC)c(OC)cc3NC(=O)c3cnc4ccccc4c3)cc1)CC2 [[^11C]tariquidar]
- percentage increase in Kp,brain following ABCG2 inhibition (ABCG2 at the mouse BBB [1]; APP/PS1-21 mice, cerebellum): 36–52%
- change in Kp,brain after partial ABCG2 inhibition (ABCG2 at the mouse BBB [1]; cerebellum, APP/PS1-21 mice): significantly increased
- change in Kp,brain after partial ABCG2 inhibition (ABCG2 at the mouse BBB [1]; cerebellum, wild-type mice): not in wild-type mice
- change in Kp,brain after partial ABCG2 inhibition (ABCG2 at the mouse BBB [1]; hippocampus and cortex, both mouse strains): significantly higher
- percentage increase in Kp,brain following ABCG2 inhibition (ABCG2 at the mouse BBB [1]; wild-type mice, cerebellum): 26–41%
- maximum brain uptake, Kp,brain (ABCG2 at the mouse BBB [2]): approximately 15

Structure (SMILES): CNC(=O)C(CCN1CCC(O)(c2ccc(Cl)cc2)CC1)(c1ccccc1)c1ccccc1 [[^11C]N-desmethyl-loperamide]
- increase in brain distribution relative to wild-type mice (ABCB1 at the BBB; heterozygous Abcb1a/b(+/-) knockout mice): 1.1 fold
- increase in brain distribution relative to wild-type mice (ABCB1 at the BBB; homozygous Abcb1a/b(-/-) knockout mice): 2.8 fold

Structure (SMILES): CN(C)C(=O)C(CCN1CCC(O)(c2ccc(Cl)cc2)CC1)(c1ccccc1)c1ccccc1 [loperamide]
- change in brain distribution in triple transgenic AD mice (APPswe, PS-1M146V, tauP301L) (ABCB1 [3]): no changes

Structure (SMILES): COc1cc2c(cc1OC)CN(CCc1ccc(NC(=O)c3cc(OC)c(OC)cc3NC(=O)c3cnc4ccccc4c3)cc1)CC2 [tariquidar]
- pIC50 (ABCB1 [4]): 7.77
- pIC50 (ABCG2): 6.51

Structure (SMILES): Cc1nc2n(c(=O)c1CCN1CCC(c3noc4cc(F)ccc34)CC1)CCCC2O (stereo not drawn) [paliperidone]
- difference in Kp,uu,brain between tg-APPArcSwe and age-matched control mice (ABCB1 [5]): no differences
